This note sets out measurements from ChEMBL document CHEMBL1140223, “Novel multifunctional acyloxyalkyl ester prodrugs of 5-aminolevulinic acid display improved anticancer activity independent and dependent on photoactivation” (J Med Chem, 2008).

Test [1] concerns U-251. In words: Induction of apoptosis in human U251 cells assessed as late apoptotic cells at 100 uM after 48 hrs using annexin-V FITC and PI staining by flow cytometry in presence of Ac-LEHD-CHO. The class given is functional.
In test [2] the test system is U-251. In words: Induction of necrosis in human U251 cells assessed as necrotic cells at 100 uM after 48 hrs using annexin-V FITC and PI staining by flow cytometry. The class given is functional.
In test [3] the test system is U-251. In words: Cytotoxicity against human U251 cells assessed as ROS production by Hoechst test in presence of N-acetyl-L-cysteine. The class given is functional, cell-based.
For test [4], the system named is U-251. In words: Cytotoxicity against human U251 cells after 72 hrs by Hoechst test. The test is classed as functional, cell-based. The note with it: U-251, 72 h.
Test [5] deals with U-251. Description: Induction of necrosis in human U251 cells assessed as necrotic cells at 100 uM after 48 hrs using annexin-V FITC and PI staining by flow cytometry in presence of Ac-LEHD-CHO. The test is classed as functional.
Test [6] deals with U-251. Description: Inhibition of 26S proteasome activity in human U251 cells at 100 uM after 48 hrs in presence of N-acetyl-L-cysteine relative to control. The class given is cell-based. The note with it: values are per cent of control.
The subject of test [7] is HL-60. In words: Cytotoxicity against human HL60 cells after 72 hrs by MTT assay. The test is classed as functional, cell-based. The note with it: HL-60, 72 h.
In test [8] the test system is U-251. Description: Increase in CDKp21 expression levels in human U251 cells at 100 uM after 24 hrs by Western blot. The test is classed as functional, cell-based.
A short description of test [9]: Cytotoxicity against human MCF7/DX cells after 72 hrs by Hoechst test. The class given is functional, cell-based.
For test [10], the system named is U-251. In words: Increase in protoporphyrin 9 levels in human U251 cells at 100 uM after 24 hrs relative to control. The class given is functional.
In test [11] the test system is U-251. Description: Increase in protoporphyrin 9 levels in human U251 cells at 200 uM after 24 hrs relative to control. The test is classed as functional.
Test [12] concerns U-251. Description: Induction of apoptosis in human U251 cells assessed as early apoptotic cells at 100 uM after 48 hrs using annexin-V FITC and PI staining by flow cytometry. The test is classed as functional.
The test system of test [13] is U-251. In words: Induction of apoptosis in human U251 cells assessed as viable cells at 100 uM after 48 hrs using annexin-V FITC and PI staining by flow cytometry. The class given is functional. Conditions: U-251, 48 h, read-out: Activity.
The subject of test [14] is U-251. Description: Antiproliferative activity against human U251 cells assessed as PpIX release after 72 hrs by Hoechst test. The class given is functional, cell-based. The note with it: U-251, 72 h.
Test [15] deals with U-251. Description: Increase in heme level in human U251 cells assessed as porphobilinogen deaminase level at 100 uM after 2 hrs by Western blot relative to control. The test is classed as functional.
Test [16] relates to U-251. In words: Inhibition of 26S proteasome activity in human U251 cells at 100 uM after 48 hrs relative to control. The test is classed as cell-based. Conditions: values are per cent of control.
For test [17], the system named is U-251. Description: Induction of apoptosis in human U251 cells assessed as late apoptotic cells at 100 uM after 48 hrs using annexin-V FITC and PI staining by flow cytometry. The class given is functional.
Test [18] has as its system U-251. In words: Induction of apoptosis in human U251 cells assessed as early apoptotic cells at 100 uM after 48 hrs using annexin-V FITC and PI staining by flow cytometry in presence of Ac-LEHD-CHO. The class given is functional.
Test [19] has as its system U-251. In words: Induction of apoptosis in human U251 cells assessed as viable cells at 100 uM after 48 hrs using annexin-V FITC and PI staining by flow cytometry in presence of Z-Asp-2,6-dichlorobenzoyloxymethylketone. Conditions: U-251, 48 h, read-out: Activity. The class given is functional.
Test [20] concerns U-251. In words: Increase in ROS production in human U251 cells at 50 uM after 4 hrs by FACS flow cytometry. The test is classed as functional.
In test [21] the test system is U-251. Description: Induction of necrosis in human U251 cells assessed as necrotic cells at 100 uM after 48 hrs using annexin-V FITC and PI staining by flow cytometry in presence of Z-Asp-2,6-dichlorobenzoyloxymethylketone. The test is classed as functional.
In test [22] the test system is U-251. In words: Induction of apoptosis in human U251 cells assessed as viable cells at 100 uM after 48 hrs using annexin-V FITC and PI staining by flow cytometry in presence of Ac-LEHD-CHO. Conditions: U-251, 48 h, read-out: Activity. The class given is functional.
In test [23] the test system is U-251. Description: Induction of apoptosis in human U251 cells assessed as early apoptotic cells at 100 uM after 48 hrs using annexin-V FITC and PI staining by flow cytometry in presence of Z-Asp-2,6-dichlorobenzoyloxymethylketone. The test is classed as functional.
In test [24] the test system is U-251. Description: Induction of apoptosis in human U251 cells assessed as late apoptotic cells at 100 uM after 48 hrs using annexin-V FITC and PI staining by flow cytometry in presence of Z-Asp-2,6-dichlorobenzoyloxymethylketone. The class given is functional.
In test [25] the test system is U-251. In words: Antiproliferative activity against human U251 cells assessed as PpIX release pretreated 72 hrs before 360-410 nm light photosensitization measured after 48 hrs by Hoechst test. The class given is functional, cell-based.
For test [26], the system named is MCF7. In words: Cytotoxicity against human MCF7 cells after 72 hrs by Hoechst test. The class given is functional, cell-based. The note with it: MCF7, 72 h.
In test [27] the test system is U-251. Description: Induction of histone H4 hyperacetylation in human U251 cells at 100 uM after 4 hrs by Western blot relative to control. The test is classed as functional.
The subject of test [28] is U-251. Description: Increase in ROS production in human U251 cells at 100 uM after 4 hrs by FACS. The test is classed as functional, cell-based.
In test [29] the test system is U-251. Description: Increase in heme level in human U251 cells assessed as porphobilinogen deaminase level at 100 uM after 2 hrs by Western blot in presence of cycloheximide. The test is classed as functional, cell-based.
The subject of test [30] is U-251. In words: Induction of apoptosis in human U251 cells assessed as increase in full length caspase 8 level after 24 hrs by Western blot. The test is classed as functional, cell-based.
The test system of test [31] is U-251. Description: Increase in heme level in human U251 cells at 100 uM after 48 hrs by Western blot relative to control. The class given is functional.
Test [32] deals with U-251. In words: Inhibition of 26S proteasome activity in human U251 cells at 1 mM after 48 hrs. The test is classed as cell-based.
The subject of test [33] is U-251. In words: Increase in ROS production in human U251 cells at 100 uM after 4 hrs by FACS in presence of N-acetyl-L-cysteine. The test is classed as functional, cell-based.
Test [34] deals with U-251. In words: Induction of histone H4 hyperacetylation in human U251 cells at 100 uM after 24 hrs by Western blot relative to control. The class given is functional.
Test [35] has as its system U-251. In words: Increase in CDKp21 expression levels in human U251 cells at 100 uM after 4 hrs by Western blot. The test is classed as functional, cell-based.
Test [36] relates to U-251. Description: Induction of apoptosis in human U251 cells assessed as mitochondrial membrane potential dissipation at 100 uM after 24 hrs using JC1 dye by FACS relative to control. The class given is functional.
Test [37] deals with U-251. In words: Reduction in c-myc expression levels in human U251 cells at 100 uM after 4 hrs by Western blot. The class given is functional, cell-based.
The test system of test [38] is U-251. In words: Induction of apoptosis in human U251 cells assessed as increase in cleaved caspase 3 level after 24 hrs by Western blot. The class given is functional, cell-based.
In test [39] the test system is U-251. Description: Inhibition of 26S proteasome activity in human U251 cells at 100 uM after 24 hrs relative to control. The test is classed as cell-based.
Test [40] concerns U-251. Description: Increase in pH2AX expression levels in human U251 cells at 100 uM after 2 hrs by Western blot. The test is classed as functional, cell-based.
The subject of test [41] is U-251. Description: Increase in p-c-Jun expression levels in human U251 cells at 100 uM after 2 hrs by Western blot relative to control. The class given is functional.
Test [42] relates to U-251. Description: Induction of apoptosis in human U251 cells assessed as increase in cleaved caspase 9 level after 24 hrs by Western blot. The class given is functional, cell-based.
In test [43] the test system is U-251. Description: Increase in ROS production in human U251 cells at 50 uM after 4 hrs by FACS flow cytometry in presence of N-acetyl-L-cysteine. The test is classed as functional, cell-based.
Test [44] deals with U-251. Description: Increase in pERK expression levels in human U251 cells at 100 uM after 2 hrs by Western blot relative to control. The test is classed as functional.

Activity calls are given as the source filed them. No cut-off for these calls is given here.

Regarding `CCCC(=O)OC(C)OC(=O)CCC(=O)CN.Cl` (centres undefined), the Activity in [1] was 3%; in [2], 10%; in test [5] it was 8%; in test [12], 4%; in test [17] it was 6%; in [18], 3%. Also, the Activity in [21] is 7%; in test [23], 2%; in [24] it was 3%. Moreover, the result in test [3], in test [8] and in test [20] was Active. The IC50 came out at 728 µM in [4]; 274 µM in test [7]; 807 µM in [9]; 767 µM in test [14]; 509 µM in test [25]; 714 µM in test [26]. For the same molecule, the residual activity in [6] turned out to be 146%; in test [16], 117%. The “fold change (FC)” value is 5 in test [10], 7.8 in test [11], 2 in test [15] and 1.4 in test [27]. The viability at 100 µM in [13] came to 80%; in [19] it was 88%; in [22], 86%.
As to `CC(OC(=O)CCC(=O)CN)OC(=O)C(C)(C)C` (centres undefined), the IC50 was found to be 2040 µM in test [4] and 1390 µM in test [7].
In the case of `NCC(=O)CCC(=O)O` [AMINOLEVULINIC ACID], the Activity in test [1] is recorded as 3%; in test [2], 7%; in [5], 17%; in test [12], 6%; in test [31], 130%; in test [17] it was 14%. Besides, the Activity in [18] is recorded as 2%; in test [21], 17%; in test [23], 2%; in test [24] it was 5%. Moreover, the result in test [28], in test [29], in test [30] and in test [32] was Active. Besides, the IC50 was found to be 2660 µM in [4]; 1570 µM in test [7]; 3480 µM in test [9]; 2720 µM in [14]; 2720 µM in test [25]; 1740 µM in [26]. The residual activity in [6] amounted to 102%; in test [16] it was 100%. Moreover, the “fold change (FC)” value in test [10] is on record as 3; in test [11] it was 7.2; in test [15] it was 2. In addition, the viability at 100 µM stood at 76% in test [13], 76% in test [19] and 78% in [22]. For the same molecule, the outcome in test [33] was inactive.
Turning to `CCCC(CCC)C(=O)OCOC(=O)CCC(=O)CN`, in test [4], the IC50 stood at 64 µM.
Take `CCCC(=O)OCOC(=O)CCC(=O)CN.Cl`: the Activity in test [1] was 2%; in test [2], 19%; in test [5], 15%; in test [12], 17%; in test [31], 260%; in [17], 17%. For the same molecule, the Activity is on record as 2% in test [18]; 68% in test [20]; 11% in test [21]; 4% in [23]; 5% in test [24]. Besides, the outcome in test [3], in [35], in test [37], in [38], in test [30] and in [40] was Active. In addition, the result in test [42] and in test [43] was Active. Further, the IC50 in test [4] was 89 µM; in test [7], 57 µM; in test [9], 84 µM; in [14] it was 99 µM; in test [25] it was 59 µM; in test [26] it was 74 µM. Also, the “fold change (FC)” value in test [34] is 2; in [36], 2.4; in test [10] it was 6.6; in test [11] it was 12.4; in test [41], 9.5; in test [15] it was 8. Besides, the “fold change (FC)” value in test [44] is given as 5.4; in test [27], 1.4. Also, the residual activity in test [6] was determined as 64%; in test [16] it was 56%. In [29], the outcome was inactive. In addition, the inhibition in [39] came to 40%. For the same molecule, the viability at 100 µM in test [13] came to 47%; in test [19], 80%; in test [22], 81%.
